Measurements from patent US20020173491A1, “DAPD combination therapy with inosine monophosphate dehydrogenase inhibitor” (priority 2000, published 2002).
Where two headings read alike, the source gives them in different places.

Experiments:
xxLAI strain of HIV-1 [1] = experiment: microbe, parasite or virus in culture; type: cell-based; conditions: for Fold difference in EC50, 0.1 μM MPA: control vs with 0.1 μM MPA; for Fold difference in EC50, 0.25 μM MPA: control vs with 0.25 μM MPA (fold decrease); for Fold difference in EC50, 5 μM RBV: control vs with 5 μM RBV; for Fold difference in EC50, 10 μM RBV: control vs with 10 μM RBV
Protocol: Triplicate samples of compound were tested. MT2 cells were infected with xxLAI at a multiplicity of infection (MOI) of 0.03 for 3 hours at 37° C. in 5% CO2. The infected cells were plated at 3.0×10^4/well into a 96 well plated containing drug dilutions and incubated for 5 days at 37° C. in CO2. […] This method has been modified into a susceptibility assay and has been used in a variety of in vitro antiviral tests and is readily adaptable to any system with a lytic virus (Weislow, O. S., et. al. 1989). Using the absorption values of the cell controls as 100% protection and no drug, virus infected cells as 0% protection, a dose response curve is generated by plotting % protection on the Y axis and drug concentration on the X axis. From this curve EC50 values were determined.
Assays were performed in the MT2 cell line as described above in the XXT sensitivity assay section.
MPA was tested for activity against the xxLAI strain of HIV-1 in the laboratory adapted cell line MT2. Dilutions of MPA were made in cell culture media in a 96 well plate; the highest concentration tested was 1 μM. Triplicate samples of compound were tested. MT2 cells were infected with xxLAI at a multiplicity of infection (MOI) of 0.03 for 3 hours at 37° C. in 5% CO2. The infected cells were plated at 3.0×10^4/well into a 96 well plated containing drug dilutions and incubated for 5 days at 37° C. in CO2. The antiviral activity of MPA was determined using the XTT assay described above. This method has been modified into a susceptibility assay and has been used in a variety of in vitro antiviral tests and is readily adaptable to any system with a lytic virus (Weislow, O. S., et. al. 1989). Using the absorption values of the cell controls as 100% protection and no drug, virus infected cells as 0% protection, a dose response curve is generated by plotting % protection on the Y axis and drug concentration on the X axis. From this curve EC50 values were determined.
The concentrations of MPA used were 1, 0.5, 0.25, 0.1, and 0.01 μM. Assays were performed in the MT2 cell line as described in section 3.1.

xxLAI strain of HIV-1 [2] = experiment: microbe, parasite or virus in culture; type: cell-based; conditions: for effect of addition of 0.25 μM MPA on anti-HIV activity in PBMCs / effect of addition of 20 μM RBV on anti-HIV activity in PBMCs / Fold difference in EC50, 0.1 μM MPA / Fold difference in EC50, 0.25 μM MPA / Fold difference in EC50, 5 μM RBV / Fold difference in EC50, 10 μM RBV / Fold difference in EC50, 20 μM RBV: PBMC; for effect of addition of 0.25 μM MPA on anti-HIV activity in PBMCs / effect of addition of 20 μM RBV on anti-HIV activity in PBMCs: all the concentrations tested; for Fold difference in EC50, 0.1 μM MPA: control vs with 0.1 μM MPA; for Fold difference in EC50, 0.25 μM MPA: control vs with 0.25 μM MPA; for Fold difference in EC50, 5 μM RBV: control vs with 5 μM RBV; for Fold difference in EC50, 10 μM RBV: control vs with 10 μM RBV; for Fold difference in EC50, 20 μM RBV: control vs with 20 μM RBV
Protocol: In this assay, cell supernatants were incubated on microelisa wells coated with antibodies to HIV-1 p24 core antigen. Subsequently, anti-HIV-1 conjugate labeled with horseradish peroxidase was added. The labeled antibody bound to the solid phase antibody/antigen complexes previously formed. Addition of the tetramethylbenzidine substrate results in blue color formation. The color turned yellow when the reaction is stopped. The plates were then analyzed on a plate reader set at 490 nm. The absorbance is a direct measurement of the amount of HIV-1 produced in each well and a decrease in color indicates decreased viral production. […] PBMC were obtained from HIV-1 negative donors by banding on Ficoll gradients, stimulated with phytohemaglutinin (PHAP) for 48 hours prior to infection with HIV-1, and infected with virus for 4 hours at 37° C. at a MOI of 0.001. […] Plates were incubated for 3 days at 37° C. The concentration of virus in each well was determined using the NEN p24 assay. Using the absorption values of the cell controls as 100% protection and drug free, virus infected cells as 0% protection, a dose response curve is generated by plotting percent protection on the Y axis and drug concentration on the X axis. From this curve, EC50 values were determined.
Compound dilutions and assay conditions were as described above.
MPA was also tested for activity against the xxLAI strain of HIV-1 in PBMCs using a p24 based Elisa assay. In this assay, cell supernatants are incubated on microelisa wells coated with antibodies to HIV-1 p24 core antigen. Subsequently, anti-HIV-1 conjugate labeled with horse radish peroxidase is added. The labeled antibody binds to the solid phase antibody/antigen complexes previously formed. Addition of the tetramethylbenzidine substrate results in blue color formation. The color turns yellow when the reaction is stopped. The plates are then analyzed on a plate reader set at 490 nm. The absorbance is a direct measurement of the amount of HIV-1 produced in each well and a decrease in color indicates decreased viral production. Dilutions of MPA were made in cell culture media in a 96 well plate, the highest concentration of MPA tested was 1 μM. PBMC were obtained from HIV-1 negative donors by banding on Ficoll gradients, stimulated with phytohemaglutinin (PHAP) for 48 hours prior to infection with HIV-1, and infected with virus for 4 hours at 37° C. at a MOI of 0.001. Infected cells were seeded into 96 well plates containing 4-fold serial dilutions of MPA. Plates were incubated for 3 days at 37° C. The concentration of virus in each well was determined using the NEN p24 assay. Using the absorption values of the cell controls as 100% protection and drug free, virus infected cells as 0% protection, a dose response curve is generated by plotting % protection on the Y axis and drug concentration on the X axis. From this curve EC50 values were determined.
Compound dilutions and assay conditions were as described above. The concentrations of MPA used were 1, 0.5, 0.25, 0.1, and 0.01 μM.

[3] = Human immunodeficiency virus 1, MT2, read-out: Mean EC50, Control, MT2 cells, no MPA
[4] = Human immunodeficiency virus 1, MT2, read-out: Mean EC50, Control, MT2 cells, no RBV
[5] = read-out: Mean EC50, 0.01 μM MPA, MT2 cells, with 0.01 μM MPA
[6] = read-out: Mean EC50, 0.1 μM MPA, MT2 cells, with 0.1 μM MPA
[7] = read-out: Mean EC50, 0.25 μM MPA, MT2 cells, with 0.25 μM MPA
[8] = read-out: Mean EC50, 5 μM RBV, MT2 cells, with 5 μM RBV
[9] = read-out: Mean EC50, 10 μM RBV, MT2 cells, with 10 μM RBV
[10] = read-out: Mean EC50, 20 μM RBV, MT2 cells, with 20 μM RBV
[11] = Human immunodeficiency virus 1, PBMC, read-out: Mean EC50, Control, PMBCs, no MPA
[12] = Human immunodeficiency virus 1, PBMC, read-out: Mean EC50, Control, PMBCs, no RBV
[13] = read-out: Mean EC50, 0.01 μM MPA, PMBCs, with 0.01 μM MPA
[14] = read-out: Mean EC50, 0.1 μM MPA, PMBCs, with 0.1 μM MPA
[15] = read-out: Mean EC50, 0.25 μM MPA, PMBCs, with 0.25 μM MPA
[16] = read-out: Mean EC50, 1 μM RBV, PMBCs, with 1 μM RBV
[17] = read-out: Mean EC50, 5 μM RBV, PMBCs, with 5 μM RBV
[18] = read-out: Mean EC50, 10 μM RBV, PMBCs, with 10 μM RBV
[19] = read-out: Mean EC50, 20 μM RBV, PMBCs, with 20 μM RBV

Row | Structure (SMILES) | EC50 (xxLAI strain of HIV-1 [1]; [3]) [nM] | EC50 (xxLAI strain of HIV-1 [1]; [4]) [nM] | Fold difference in EC50, 0.1 μM MPA (xxLAI strain of HIV-1 [1]; MT2 cells) [fold] | Fold difference in EC50, 0.25 μM MPA (xxLAI strain of HIV-1 [1]; MT2 cells) [fold] | Fold difference in EC50, 5 μM RBV (xxLAI strain of HIV-1 [1]; MT2 cells) [fold] | Fold difference in EC50, 10 μM RBV (xxLAI strain of HIV-1 [1]; MT2 cells) [fold] | EC50 (xxLAI strain of HIV-1 [1]; [5]) [nM] | EC50 (xxLAI strain of HIV-1 [1]; [6]) [nM] | EC50 (xxLAI strain of HIV-1 [1]; [7]) [nM] | EC50 (xxLAI strain of HIV-1 [1]; [8]) [nM] | EC50 (xxLAI strain of HIV-1 [1]; [9]) [nM] | EC50 (xxLAI strain of HIV-1 [1]; [10]) [nM] | EC50 (xxLAI strain of HIV-1 [2]; [11]) [nM] | EC50 (xxLAI strain of HIV-1 [2]; [12]) [nM] | effect of addition of 0.25 μM MPA on anti-HIV activity in PBMCs (xxLAI strain of HIV-1 [2]; with 0.25 μM MPA) | effect of addition of 20 μM RBV on anti-HIV activity in PBMCs (xxLAI strain of HIV-1 [2]; with 20 μM RBV) | Fold difference in EC50, 0.1 μM MPA (xxLAI strain of HIV-1 [2]) [fold] | Fold difference in EC50, 0.25 μM MPA (xxLAI strain of HIV-1 [2]) [fold] | EC50 (xxLAI strain of HIV-1 [2]; [13]) [nM] | EC50 (xxLAI strain of HIV-1 [2]; [14]) [nM] | also measured
1 | Cc1cn([C@H]2C[C@H](N=[N+]=[N-])[C@@H](CO)O2)c(=O)[nH]c1=O [AZT, 3′-azido-3′-deoxy-thymidine] | 420 | 1700 | 0.5 | 0.44 | 0.37 | 0.29 | 300 | 800 | 950 | 4600 | 5900 | > 10000 | 3.1 | 3 | little effect | little effect | 1.5 | 1.8 | 2.6 | 2.1 | fold increase in the apparent EC50 (xxLAI strain of HIV-1 [1]; MT2 cells, addition of 0.25 μM MPA): 2.3 fold; Fold difference in EC50, 1 μM RBV (xxLAI strain of HIV-1 [1]; MT2 cells, control vs with 1 μM RBV): 0.59 fold; Fold difference in EC50, 20 μM RBV (xxLAI strain of HIV-1 [1]; MT2 cells, control vs with 20 μM RBV (fold decrease)): <0.17 fold; EC50 (xxLAI strain of HIV-1 [1]; read-out: Mean EC50, 1 μM RBV, MT2 cells, with 1 μM RBV): 2900 nM; Fold difference in EC50, 5 μM RBV (xxLAI strain of HIV-1 [2]): 1.2 fold; Fold difference in EC50, 10 μM RBV (xxLAI strain of HIV-1 [2]): 1.4 fold; Fold difference in EC50, 20 μM RBV (xxLAI strain of HIV-1 [2]): 1.4 fold; EC50 (xxLAI strain of HIV-1 [2]; [15]): 1.7 nM; EC50 (xxLAI strain of HIV-1 [2]; [16]): 3.5 nM; EC50 (xxLAI strain of HIV-1 [2]; [17]): 2.6 nM; EC50 (xxLAI strain of HIV-1 [2]; [18]): 2.2 nM; EC50 (xxLAI strain of HIV-1 [2]; [19]): 2.1 nM
2 | Nc1nc(NC2CC2)c2ncn([C@H]3C=C[C@@H](CO)C3)c2n1 [Abacavir] | 2400 | 4700 | 1 | 1.7 | 0.68 | 0.73 | – | – | 1400 | 6900 | 6400 | 5700 | 1200 | 540 | completely inhibited HIV replication | completely inhibited HIV replication | 3.2 | >50 | 1100 | 380 | fold difference in the apparent EC50 on addition of RBV (xxLAI strain of HIV-1 [1]; MT2 cells, addition of RBV): less than 2 fold; Fold difference in EC50, 5 μM RBV (xxLAI strain of HIV-1 [2]): 4.9 fold; Fold difference in EC50, 10 μM RBV (xxLAI strain of HIV-1 [2]): 18 fold; Fold difference in EC50, 20 μM RBV (xxLAI strain of HIV-1 [2]): >18 fold; EC50 (xxLAI strain of HIV-1 [2]; [15]): < 0.5 nM; EC50 (xxLAI strain of HIV-1 [2]; [16]): 200 nM; EC50 (xxLAI strain of HIV-1 [2]; [17]): 110 nM; EC50 (xxLAI strain of HIV-1 [2]; [18]): 30 nM; EC50 (xxLAI strain of HIV-1 [2]; [19]): < 30 nM
3 | Nc1nc(=O)n([C@@H]2CS[C@H](CO)O2)cc1F [FTC] | – | – | 1 | – | – | – | 620 | 620 | – | – | – | – | – | – | little effect | – | 1.2 | 1.8 | 8 | 9.3 | EC50 (xxLAI strain of HIV-1 [1]; MT2 cells, no MPA, read-out: Mean EC50, Control): 600 nM; EC50 (xxLAI strain of HIV-1 [1]; MT2 cells, with 0.25 μM MPA, read-out: Mean EC50, 0.25 μM MPA): 400 nM; EC50 (xxLAI strain of HIV-1 [2]; PMBCs, no MPA, read-out: Mean EC50, Control): 11 nM; EC50 (xxLAI strain of HIV-1 [2]; PMBCs, with 0.25 μM MPA, read-out: Mean EC50, 0.25 μM MPA): 6 nM
